Entries after “also recorded” stand apart in the source; their conditions may differ.
Assays:
[1] = test system: blood vessel development and/or lymphangiogenesis in Xenopus embryos; type: in vivo, Xenopus laevis
Method in brief: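 Albino Xenopus embryos treated at 20 μM final (from 10-mM DMSO stocks) in screening medium, 7 per well, from stage 31 (37 hpf) to stage 35/36 (50 hpf) or 42 (80 hpf). Fixed in 4% paraformaldehyde and scored by whole-mount in situ hybridization: vasculogenesis and intersomitic vein angiogenesis at stage 35/36, lymph vessel development at stage 42.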

LEC [2] = assay: LEC cell proliferation assay; type: cell-based, human; conditions: 10 μM in 0.1% DMSO, 48 hours
Method in brief: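 HUVEC and LEC in EBM with 20% FBS, hydrocortisone and dibutyryl-cAMP were treated with compound at 10 μM in 0.1% DMSO for 48 hours. Viable cells read by fluorescence, in five replicates.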

Xenopus embryos = test system: Xenopus embryos
Method in brief: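 Stage 31 (37 hpf) Xenopus embryos, five per well, exposed to 20 µM compound in 1% DMSO at 23 °C for 4 days. Edema, lethality and other external phenotypes were scored daily by two investigators at stages 39, 41, 45 and 47.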

LEC [3] = assay: cells; type: cell-based, human; conditions: 1 μM in 0.1% DMSO, overnight
Method in brief: (§1)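 HUVEC and LEC in EBM with 20% FBS, hydrocortisone and dibutyryl-cAMP, up to eleven passages, treated overnight at 37 °C with compound at 1 μM in 0.1% DMSO, then fixed in 4% paraformaldehyde. Read-out: total tube length (μm) per area over three hotspot images per well, triplicate wells.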

[4] = test system: transgenic zebrafish expressing a fluorescent vascular reporter gene; conditions: Tran et al., 2007, cited from earlier work
HUVEC = HUVEC tube formation assay; type: cell-based, human; conditions: 1 μM in 0.1% DMSO, overnight
Method in brief: as §1

Compound: CN(C)c1ccc(C=C2C(=O)Nc3ccccc32)cc1 [SU 4312, 3-(4-Dimethylaminobenzylidenyl)-2-indolinone]
- blood vessel development phenotype (apj expression, in words) ([1]; 20 μM from stage 31, fixed at stage 35/36): largely unaffected; also recorded: normal angiogenic ISV outgrowth
- lymph vessel development phenotype (vegfr3 expression, in words) ([1]; 20 μM from stage 31, fixed at stage 42): inhibiting preferentially lymphatic vascular development; also recorded: lymphangiogenesis was largely suppressed; also recorded: robustly blocks lymphangiogenesis
- Blood vessel phenotype ([1]; Xenopus embryos): normal
- ALH phenotype ([1]; anterior lymph heart, Xenopus embryos): impaired
- ALS phenotype ([1]; anterior lymph sac, Xenopus embryos): impaired
- PLV phenotype ([1]; posterior lymph vessels, Xenopus embryos): hypoplastic
- LEC proliferation (LEC [2]): O (O, inactive or marginal effects (85-115% of control);)
- scored in the phenotypic Xenopus screens (Xenopus embryos; 20 μM, known antiangiogenic compounds): active
- Embr. phen. (Xenopus embryos; embryonic phenotype in the primary screen): EDE
- Type of edema Pronephric (Xenopus embryos; embryonic stage): 45 embryonic stages according to Nieuwkoop and Faber (NF)
- Type of edema Periocular (Xenopus embryos; embryonic stage, * = causing bulging eyes, # = bilateral, causing narrow-set eyes): 45 embryonic stages according to Nieuwkoop and Faber (NF)
- Type of edema Ventral (Xenopus embryos; embryonic stage, ‡ = edemas also detected in the gut): 45 embryonic stages according to Nieuwkoop and Faber (NF)
- Onset (NF) (Xenopus embryos; onset of edema, 20 μM, 1% DMSO, treatment from stage 31, Nieuwkoop & Faber stage): 45 NF
- LEC tube formation (LEC [3]): O (O, inactive or marginal effects (85-115% of control);)
- recovery as antiangiogenic compound in the transgenic zebrafish screen [4]: recovery
- antiangiogenic effects in zebrafish ([4]; at higher concentrations (>30 μM)): moderate antiangiogenic effects
- HUVEC tube formation (HUVEC): O (O, inactive or marginal effects (85-115% of control);)

Source: patent publication US9945845B2, “Methods of screening using amphibians” (priority 2009, dated 2018)
